Results published in PubChem BioAssay (NCI).
Where “and” joins values, the source holds several entries; their conditions need not be identical. Equal values may be shown once.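 Each compound was tested at five concentrations against cells in 96-well plates for 48 hours. Abbreviation: GI50, concentration required for 50% inhibition of growth. Definition used: TGI = concentration required for complete inhibition of growth.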 Where a SMILES comes first, the peptide text is derived from it. Bridges are numbered along the chain shown (N, C = ends).

How the values were obtained:
Assay in all cases: inhibition of tumour cell growth, NCI panel, 48 h
MDA-MB-231 breast = tested on: MDA-MB-231 breast
HCT-15 colon = tested on: HCT-15 colon
NCI-H23 lung = tested on: NCI-H23 lung
M14 melanoma = tested on: M14 melanoma
HCT-116 colon = tested on: HCT-116 colon
UACC-62 melanoma = tested on: UACC-62 melanoma
OVCAR-3 ovarian = tested on: OVCAR-3 ovarian
HCC-2998 colon = tested on: HCC-2998 colon
SK-MEL-5 melanoma = tested on: SK-MEL-5 melanoma
HS 578T breast = tested on: HS 578T breast

Compound | TGI (MDA-MB-231 breast) | TGI (HCT-15 colon) | TGI (NCI-H23 lung) | TGI (M14 melanoma) | TGI (HCT-116 colon) | TGI (UACC-62 melanoma) | TGI (OVCAR-3 ovarian) | TGI (HCC-2998 colon) | TGI (SK-MEL-5 melanoma) | TGI (HS 578T breast) | GI50 (MDA-MB-231 breast) | GI50 (HCT-15 colon) | GI50 (NCI-H23 lung) | GI50 (M14 melanoma) | GI50 (HCT-116 colon) | GI50 (UACC-62 melanoma) | GI50 (OVCAR-3 ovarian) | GI50 (HCC-2998 colon) | GI50 (SK-MEL-5 melanoma) | GI50 (HS 578T breast)
CCc1nc(N)nc(N)c1-c1ccc(N(C)Cc2ccccc2)c([N+](=O)[O-])c1 | 36.1 µM | 9.86 µM | 24.4 µM | 11.3 µM | 10 µM | 13 µM | 22.6 µM | 8.73 µM | 4.32 µM | 72.7 µM | – | – | – | – | – | – | – | – | – | –
O=c1oc2ccc(I)cc2c(=O)n1-c1ccc(I)cc1F | 6.14 µM | 10.5 µM | 4.39 µM | 5.87 µM | 2.27 µM | 1.11 µM | 9.75 µM | 11.1 µM | 0.747 µM | 4.78 µM | 0.579 µM | 0.704 µM | 0.476 µM | 0.545 µM | 0.472 µM | 0.279 µM | 0.44 µM | 2.8 µM | 0.258 µM | 0.324 µM
COc1cc2c(cc1OC)-c1c(c3ccc([N+](=O)[O-])cc3c(=O)n1CCCN=[N+]=[N-])C2=O | > 100 µM | > 100 µM | > 100 µM | 67.3 µM | > 100 µM | > 100 µM | > 100 µM | > 100 µM | > 100 µM | > 100 µM | > 100 µM | > 100 µM | 40.5 µM | 20.3 µM | 31.5 µM | 51.9 µM | > 100 µM | 83.9 µM | 42.6 µM | > 100 µM
COc1cc(C(=O)c2cnc(-c3ccc4cc[nH]c4c3)[nH]2)cc(OC)c1OC | 1.44 µM | 4.96 µM | 21 µM | – | 2.23 µM | 13.8 µM | 0.0477 µM | 4.02 µM | 0.389 µM | > 86.9 µM | 0.0609 µM | 0.0381 µM | 0.0575 µM | – | 0.0332 µM | 0.0244 µM | 0.0195 µM | 0.117 µM | 0.0385 µM | 0.0461 µM
CC1OC(OC2C(O)C(OCCc3ccc(O)c(O)c3)OC(CO)C2OC(=O)/C=C/c2ccc(O)c(O)c2)C(O)C(O)C1O (stereo unspecified) | 34.7 µM | > 100 µM | > 100 µM | > 100 µM | > 100 µM | 45.5 µM | 79.7 µM | 35.6 µM | > 100 µM | > 100 µM | 16.3 µM | > 100 µM | > 100 µM | > 100 µM | > 100 µM | 19.1 µM | 27.4 µM | 19 µM | > 100 µM | > 100 µM
N#Cc1ccc(O)c(C2=NCC(c3ccc(-c4ccccc4)cc3)O2)c1 (stereo unspecified) | 18.5 µM | 20.4 µM | 17.2 µM | 2.95 µM | 15.2 µM | 1.61 µM | 11.7 µM | 21.6 µM | 2.28 µM | 31.9 µM | 0.823 µM | 0.0896 µM | 0.703 µM | 0.399 µM | 0.462 µM | 0.407 µM | 0.368 µM | 0.628 µM | 0.532 µM | 0.867 µM
CN(CO)c1nc(N(C)CO)nc(N(C)CO)n1 | 42.9 µM and 46.9 µM | 65.5 µM and 37.1 µM | 59.8 µM and 91.7 µM | 36.4 µM and 42.8 µM | 53.2 µM and 47.3 µM | 33.8 µM and 25.4 µM | 62.1 µM and 63.5 µM | 67.8 µM and 52.4 µM | 32.2 µM and 33.8 µM | 55 µM and 78.3 µM | 18.3 µM | 25.8 µM | 25.4 µM | 19.5 µM | 21.7 µM and 11.7 µM | 17.2 µM | – | 27.9 µM and 25.5 µM | 18.1 µM | 21.4 µM
COc1ccccc1-c1ccc2c(N)c(C(=O)c3ccc4c(c3)OCO4)sc2n1 | 8.59 µM | 53.6 µM | 52.8 µM | 75 µM | 15 µM | 18.6 µM | 22 µM | 29.1 µM | 24.2 µM | 47.1 µM | 2.81 µM | 4.08 µM | 12.9 µM | 4.21 µM | 3.68 µM | 4.12 µM | 5.18 µM | 12 µM | 4.52 µM | 7.97 µM
CCC(C)C1NC(=O)C(CC(C)C)NC(=O)C(C(C)C)NC(=O)C2CSSCC(NC1=O)C(=O)N2 (stereo unspecified) (cyclo(CCVLI); disulfide 1-2; configuration not given here) | 0.233 µM | 7.12 µM | 0.277 µM | 1.01 µM | 0.187 µM | 0.228 µM | 0.395 µM | 0.216 µM | 0.293 µM | 0.271 µM | – | – | – | – | – | – | – | – | – | –
C#Cc1cccc(Nc2ncnc3ccc(-c4cnc(N)nc4)cc23)c1 | 11 µM | 13.2 µM | > 100 µM | 15.7 µM | 17.3 µM | 11.4 µM | 10.5 µM | 23.4 µM | 12.5 µM | 4.06 µM | 2.05 µM | 2.55 µM | 3.67 µM | 3.73 µM | 4.75 µM | 1.83 µM | 1.93 µM | 5.14 µM | 3.34 µM | 1.23 µM
Fc1ccc(-c2c(-c3ccncc3)[nH]c3cccnc23)cc1 | > 25 µM | > 25 µM | > 25 µM | > 25 µM | > 25 µM | > 25 µM | > 25 µM | > 25 µM | > 25 µM | > 25 µM | > 25 µM | 15.4 µM | > 25 µM | > 25 µM | > 25 µM | 12 µM | > 22.2 µM | > 25 µM | 24.3 µM | > 25 µM
COc1ccc(C(=O)/C=C/c2c(C(F)(F)F)nc3ccccn23)cc1OC | 8.55 µM | > 100 µM | > 26.9 µM | > 66.7 µM | 4.26 µM | > 100 µM | 6.09 µM | 2.23 µM | 20.1 µM | > 100 µM | 3.06 µM | 1.57 µM | 1.66 µM | 2.22 µM | 0.561 µM | – | 2.28 µM | 0.553 µM | 2.1 µM | 2.31 µM
